According to patent publication US8227604B2, “Hybrid 2-aminotetralin and aryl-substituted piperazine compounds and their use in altering CNS activity” (Wayne State University, priority 2001, dated 2012):

How the values were obtained:
D2L receptor = biological target: T1, D2L receptor (Homo sapiens, UniProt P14416); experiment: Inhibition constants for binding to cloned D2L receptor expressed in HEK cells, [3H]spiperone
T1 construct: expressed in transfected cells; host or cells: HEK cells
Procedure: Inhibition constants for binding to cloned D2L and D3 receptors expressed in HEK cells by displacing [^3H] spiperone were measured for several compounds.

5HT1A receptor = biological target: T2, 5HT1A receptor (Homo sapiens, UniProt P08908); experiment: Binding affinity at cloned human 5HT1A receptor, [3H]8-OH-DPAT (HA7 cells)
T2 construct: expressed in transfected cells; host or cells: HA7 cells
T2 sequence (P08908 1-422): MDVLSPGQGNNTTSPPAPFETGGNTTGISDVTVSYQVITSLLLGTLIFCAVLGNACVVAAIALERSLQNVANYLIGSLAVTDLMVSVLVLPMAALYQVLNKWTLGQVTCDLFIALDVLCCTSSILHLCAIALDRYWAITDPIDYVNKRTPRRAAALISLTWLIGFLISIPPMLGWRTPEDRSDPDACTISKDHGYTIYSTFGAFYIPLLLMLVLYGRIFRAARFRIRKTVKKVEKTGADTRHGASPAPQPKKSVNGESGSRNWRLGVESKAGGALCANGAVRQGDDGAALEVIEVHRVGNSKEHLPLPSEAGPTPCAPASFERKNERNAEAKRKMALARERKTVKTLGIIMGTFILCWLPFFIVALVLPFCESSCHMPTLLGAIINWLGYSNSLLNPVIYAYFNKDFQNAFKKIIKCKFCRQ
Procedure: HA7 cells (human receptor) are grown to confluence in DMEM containing 10% fetal calf serum, 0.05% penicillin-streptomycin (pen-strep), and […] of G418. The cells are scraped from the 100 by 20 mm plates and centrifuged at 500·G for 5 min. The pellet is homogenized in 50 mM Tris-HCl, pH 7.7, with a polytron, centrifuged at 27,000·G and resuspended at 10 mg protein/ml in the same buffer. The homogenate is then stored at −70° C. in 1-ml aliquots.
The thawed cells are washed once and resuspended at 10 mg protein/80 ml in 25 mM Tris-HCl containing 100 μM of ascorbic acid and 10 mM of nialamide at pH 7.4. The assay is performed in triplicate in a 96-well plate. To 100 μl of [^3H]8-OH-DPAT (0.5 nM final conc), […] of test compound or buffer and 0.8 ml of cell homogenate (0.1 mg protein/well) is added to each well by a Tomtec Quadra 96. Nonspecific binding is defined using 1 μM dihydroergotamine. The plates are incubated at 25° C. for 60 min, then filtered. The incubation is terminated by rapid filtration through glass fiber filter paper on a Tomtec cell harvester. The filters are washed four times with ice-cold 50 mM Tris-HCl, pH 7.7, dried overnight, bagged with 10 ml scintillation cocktail before counting for 2 min. on a Wallac Betaplate 1205 liquid scintillation counter.

D3 receptor [1] = biological target: T3, D3 receptor (Homo sapiens, UniProt P35462); experiment: Binding affinity at cloned human D3 receptor, [3H]YM-09151-2 (CHOp-D3 cells); parameters: expressed in transfected cells; host or cells: CHOp-D3 cells; conditions: for Ki: cloned human D3; for D2/D3: ratio of Ki D2 to Ki D3, [3H]YM-09151-2 protocol of Table 4
Procedure: (§1) CHOp-cells (human receptors) are grown to confluence in a minimum essential medium (α MEM) containing 10% fetal calf serum, 0.05% pen-strep, and 600 μg/ml of G418. The cells are scraped from the 100 by 20 mm plates and centrifuged at 500. g for 5 min. The pellet is homogenized by polytron in 50 mM Tris-HCl, pH 7.7, and centrifuged at 27,000·G for 12 min. The pellet is resuspended in 50 mM Tris, D2 at 5 mg protein/ml, D3 at 1 mg protein/ml, and stored at −70° C. in 1-ml aliquots.
(§2) On the day of the experiment, CHOp-D2 or CHOp-D3 cells are thawed, resuspended in 50 mM Tris, and centrifuged at 27,000·G for 12 min. The pellet is then resuspended at 5 mg protein/80 ml (D2) and 1 mg protein/80 ml (D3) in 50 mM Tris containing 120 mM of NaCl, 5 mM of KCl, 1.5 mM of CaCl2, 4 mM of MgCl2, and 1 mM of EDTA, pH 7.4. […] Nonspecific binding is determined with 1 mM of chlorpromazine. The plates are incubated at 25° C. for 60 min before filtration and counted as usual. The filters are soaked in 0.1% PEI before filtering.

D3 receptor [2] = biological target: T3, D3 receptor; experiment: Agonist potency by [3H]thymidine incorporation (mitogenesis), D3; format: cell-based; parameters: expressed in transfected cells; host or cells: CHOp-D3 cells; conditions: for EC50 / Emax: [3H]thymidine incorporation; for Emax: >80% full agonist, read-out: D3 % Maxm Stim
Procedure: (§3) Potential as domaminergenic agonists was assayed by ^3H-thymidine incorporation by standard techniques.
(§4) The EC50 values thus indicate intrinsic activities or functional activities of these compounds. The value of % maximum stimulation indicates whether a compound is a partial agonist or full agonist. Generally, a value greater than 80% is considered as a full agonist and anything less than 80% is considered as a partial agonist.

5HT2A receptor = biological target: T4, 5HT2A receptor (Homo sapiens, UniProt P28223); experiment: Binding affinity at cloned human 5HT2A receptor, [3H]Ketanserin
T4 construct: expressed in transfected cells

D2 receptor [3] = biological target: T5, D2 receptor (Homo sapiens, UniProt P14416); experiment: Binding affinity at cloned human D2 receptor, [3H]YM-09151-2 (CHOp-D2 cells)
T5 construct: expressed in transfected cells
Procedure: as §1, §2

5HT2C receptor = biological target: T6, 5HT2C receptor (Homo sapiens, UniProt P28335); experiment: Binding affinity at cloned human 5HT2C receptor, [3H]Mesulergine
T6 construct: expressed in transfected cells
T6 sequence (P28335 33-458): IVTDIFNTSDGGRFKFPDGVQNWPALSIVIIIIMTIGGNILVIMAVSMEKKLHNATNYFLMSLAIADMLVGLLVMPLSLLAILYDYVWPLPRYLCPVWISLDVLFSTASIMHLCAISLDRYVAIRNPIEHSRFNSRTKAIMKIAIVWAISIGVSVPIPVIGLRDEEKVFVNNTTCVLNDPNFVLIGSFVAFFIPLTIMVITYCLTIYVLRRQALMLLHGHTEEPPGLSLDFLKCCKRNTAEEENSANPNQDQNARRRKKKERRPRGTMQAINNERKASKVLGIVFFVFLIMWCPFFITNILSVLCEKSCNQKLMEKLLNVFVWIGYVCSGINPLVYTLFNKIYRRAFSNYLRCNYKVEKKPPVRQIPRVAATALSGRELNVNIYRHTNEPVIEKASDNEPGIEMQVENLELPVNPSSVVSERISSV

D2 receptor [4] = biological target: T5, D2 receptor; experiment: Agonist potency by [3H]thymidine incorporation (mitogenesis), D2; format: cell-based; conditions: [3H]thymidine incorporation; for Emax: >80% full agonist, read-out: D2 % Maxm Stim
Procedure: as §3, §4

T5 sequence (P14416 whole entry): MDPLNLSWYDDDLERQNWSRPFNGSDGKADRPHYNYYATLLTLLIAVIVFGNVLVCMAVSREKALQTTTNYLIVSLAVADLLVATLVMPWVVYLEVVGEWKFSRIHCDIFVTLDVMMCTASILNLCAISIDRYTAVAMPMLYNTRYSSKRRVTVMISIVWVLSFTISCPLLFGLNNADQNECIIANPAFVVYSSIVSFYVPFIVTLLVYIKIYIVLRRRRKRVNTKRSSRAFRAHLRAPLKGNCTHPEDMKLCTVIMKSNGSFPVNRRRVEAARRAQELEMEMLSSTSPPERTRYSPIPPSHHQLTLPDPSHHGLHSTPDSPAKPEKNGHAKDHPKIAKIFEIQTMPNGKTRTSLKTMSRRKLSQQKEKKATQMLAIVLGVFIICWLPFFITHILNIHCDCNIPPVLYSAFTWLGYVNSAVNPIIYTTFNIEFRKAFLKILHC
T1 sequence (P14416 whole entry): as above
T3 sequence (P35462 whole entry): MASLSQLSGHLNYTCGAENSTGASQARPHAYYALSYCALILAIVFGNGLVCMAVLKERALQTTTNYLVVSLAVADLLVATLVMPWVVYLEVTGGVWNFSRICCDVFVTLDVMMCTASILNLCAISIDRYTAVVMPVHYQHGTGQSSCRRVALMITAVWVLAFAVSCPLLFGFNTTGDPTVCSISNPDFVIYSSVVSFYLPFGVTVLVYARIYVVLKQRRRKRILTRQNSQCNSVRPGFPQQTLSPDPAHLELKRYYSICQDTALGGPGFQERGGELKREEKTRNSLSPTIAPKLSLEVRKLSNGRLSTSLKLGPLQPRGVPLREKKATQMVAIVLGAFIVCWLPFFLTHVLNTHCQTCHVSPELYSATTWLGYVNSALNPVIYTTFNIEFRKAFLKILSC
T4 sequence (P28223 whole entry): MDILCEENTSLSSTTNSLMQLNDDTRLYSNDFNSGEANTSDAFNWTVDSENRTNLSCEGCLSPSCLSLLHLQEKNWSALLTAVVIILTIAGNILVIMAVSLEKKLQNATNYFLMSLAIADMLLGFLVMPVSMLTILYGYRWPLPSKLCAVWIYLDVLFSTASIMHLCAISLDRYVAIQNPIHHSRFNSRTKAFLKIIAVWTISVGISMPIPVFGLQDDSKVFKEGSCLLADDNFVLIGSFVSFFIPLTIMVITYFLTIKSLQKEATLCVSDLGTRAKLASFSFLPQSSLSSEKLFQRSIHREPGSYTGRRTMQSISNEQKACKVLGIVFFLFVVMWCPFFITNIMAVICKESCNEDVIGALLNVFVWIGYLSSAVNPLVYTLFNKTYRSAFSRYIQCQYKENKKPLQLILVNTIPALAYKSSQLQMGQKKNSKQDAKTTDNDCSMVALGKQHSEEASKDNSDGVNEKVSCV

Ki (D2L receptor) | Ki (5HT1A receptor) | Ki (D3 receptor [1]) | D2/D3 (D3 receptor [1]) | EC50 (D3 receptor [2]) | Emax (D3 receptor [2]) | Ki (5HT2A receptor) | Ki (D2 receptor [3]) | Ki (5HT2C receptor) | EC50 (D2 receptor [4]) | Emax (D2 receptor [4]) | agonist character at the D3 receptor (D3 receptor [2]; functional assay) | SMILES
622 ± 102 nM | 88.31 ± 0.4 nM | 75.8 ± 6.29 nM | 1.18 | 68.1 ± 36.7 nM | 67.1 ± 1.93% | 701 ± 16.8 nM | 89.8 ± 32.5 nM | > 10000 nM | 74.5 ± 32.9 nM | 54.1 ± 4.82% |  | N#CCCCN(CCCCN1CCN(c2ccccc2)CC1)C1CCc2ccc(O)cc2C1 (stereo not drawn) [Compound 8, 7-Hydroxy-2-[N-butyonitrile-(N-(4-phenylpiperazin-1-yl)-butyl)amino]tetralin]
782 ± 42 nM | 171 ± 32.2 nM | 313 ± 6.47 nM | 0.38 | 110 ± 33.3 nM | 44.1 ± 11.6% | 1230 ± 217 nM | 119 ± 1.45 nM | > 10000 nM | 115 ± 20.2 nM | 44.9 ± 0.84% |  | O=C(NCCCCN(CCCCN1CCN(c2ccccc2)CC1)C1CCc2ccc(O)cc2C1)c1ccccc1 (stereo not drawn) [Compound 10a, 7-Hydroxyl-2-[N-(4-benzoylaminobutyl)-(N-(4-phenylpiperazin-1-yl)-butyl)amino]tetralin]
354 ± 2 nM | 164 ± 27.5 nM | 84.6 ± 1.55 nM | 1.30 | 104 ± 57.3 nM | 50.9 ± 12.6% | 287 ± 50.2 nM | 111 ± 32.2 nM | > 10000 nM | 97.2 ± 47.7 nM | 27 ± 5.54% |  | O=C(NCCN(CCCCN1CCN(c2ccccc2)CC1)C1CCc2ccc(O)cc2C1)c1ccccc1 (stereo not drawn) [Compound 10b, 7-Hydroxy-2-[N-(2-benzoylamino)ethyl-(N-(4-phenylpiperazin-1-yl)-butyl)amino]tetralin]
114 ± 8 nM | 18.5 ± 2.46 nM | 3.47 ± 0.08 nM | 1 | 0.91 ± 0.46 nM | 74.9 ± 9.05% | 1780 ± 614 nM | 3.37 ± 0.78 nM | > 10000 nM | 3.21 ± 0.46 nM | 121 ± 26.1% | partial agonism | CCCN(CCCCN1CCN(c2ccccc2)CC1)C1CCc2ccc(O)cc2C1 (stereo not drawn) [Compound 15b, 7-Hydroxyl-2-[N-propyl-(N-(4-phenylpiperazin-1-yl)-butyl)amino]tetralin]
